In EPA's ToxValDB 9.5 (doi:10.2903/j.efsa.2010.1769):
Values after ≈ are worked out from the molar mass of the structure shown.

Tests used:
[1] = system: Folsomia candida; conditions: chronic/long-term; reproduction
[2] = system: Tagia sp.
[3] = system: Typhlodromus pyri; test: LR50; higher = less toxic; conditions: not reported; mortality
[4] = system: Aphidius rhopalosiphi; test: LR50; higher = less toxic; conditions: not reported; mortality
[5] = system: Danio rerio; conditions: acute; duration: 96 hours; mortality
[6] = system: Landoltia sp.; conditions: acute
[7] = system: Oncorhynchus mykiss; conditions: chronic/long-term; duration: 28 days
[8] = system: Apis mellifera; conditions: acute, mortality
[9] = system: Rattus norvegicus
[10] = system: Canidae; conditions: chronic, duration: 1 years, oral, Dog Other
[11] = system: Daphnia magna

Compound | NOEC [1] | NOEC ([2]; chronic/long-term, duration: 56 days) | LR50 [3] | LR50 [4] | LC50 [5] | NOEC [6] | NOEC [7] | LD50 ([8]; dermal) | LD50 ([8]; oral, unspecified) | NOEC ([2]; acute) | LC50 ([2]; acute, mortality) | LD50 ([9]; acute, oral, mortality) | NOAEL ([9]; reproduction developmental, reproduction) | NOAEL [10] | LOAEL ([10]; clinical signs) | LC50 ([11]; acute, duration: 96 hours, mortality) | NOEC ([11]; chronic/long-term, duration: 21 days)
CCc1cccc(C)c1N(COC(C)C)C(=O)C(=O)O | > 1000 mg/kg |  |  |  |  |  |  |  |  |  |  |  |  |  |  |  | 
CCc1cccc(C)c1NC(=O)CS(=O)(=O)O [2-(2-ethyl-6-methylanilino)-2-oxoethane-1-sulfonic acid] | > 1000 mg/kg | 3.5 mg/kg |  |  |  |  |  |  |  |  |  |  |  |  |  |  | 
CCc1cccc(C)c1N(COC(C)C)C(=O)CCl [Propisochlor] |  |  | 1500 g/ha | 20300 g/ha | 0.93 µg/mL (≈ 3.28 µM) | 21 µg/L | 0.18 mg/L | > 100 µg/piece | > 111 µg/piece | 62.5 mg/kg | 248 mg/kg | 1920 mg/kg | 10 mg/kg-day | 5 mg/kg-day | 5 mg/kg-day | 4.46 µg/mL (≈ 15.7 µM) | 0.93 mg/L
